Molecules are shown by their SMILES. Counter-ions that a name gives are not always drawn. Like-named read-outs stand apart in the source and are kept apart here.

The subject of assay [1] is TNF-α. Nature of the assay: Serum TNF-α in endotoxemic rats after intracerebroventricular administration. The class given is in vivo. Particulars: ICV 1 hour before endotoxemia, doses tested 1-1000 ng/kg, dose of the result not stated. How it is done:
Endotoxemia was induced in rats via intraperitoneal (IP) injection of endotoxin (lipopolysaccharide, LPS; E. coli 0111:B4, Sigma; 10 mg/ml in PBS) (10-30 mg/kg, IP). Rats were anesthetized with ketamine (10%) in xylazine and placed in a stereotatic head frame (Stoelting Co.). The incisor bar was adjusted until the plane defined by the lambda and bregma was parallel to the base plate. The needle of a Hamilton syringe ([…]) was stereotactically guided into lateral ventricle (0.8 mm posterior to bregma, 1.5 mm lateral to midline, 3.5 mm below the dura). Galantamine at 1, 10, 100 and 1000 ng/kg was dissolved in sterile endotoxin-free saline and administered over 2 min. Vehicle control (saline) was also administered over 2 min. The location of intracerebroventricular (i.c.v.) injections was confirmed by histological examination of the brain after the experiment. TNF-α was measured as described above.

For assay [2], the system named is murine model of lethal endotoxemia. The class given is in vivo, mice. The settings on record: for mice survived: 14 days after endotoxin, vehicle none survived.
A further assay relates to HMGB1. Nature of the assay: Serum HMGB1 (western blot) in septic mice after cecal ligation and puncture. Type of assay: in vivo. The protocol: (§1) Cecal Ligation and Puncture (CLP) was performed as described in Fink and Heard, J. of Surg. Res. 49:186-196 (1990), Wichman et al., Crit. Care Med. 26:2078-2086 (1998) and Remick et al., Shock 4:89-95 (1995). Briefly, BALB/c mice were anesthetized with 100 mg/kg ketamine (Fort Dodge, Fort Dodge, Iowa) and 10 mg/kg of xylazine (Bohringer Ingelheim, St. Joseph, Mo.) intramuscularly. A midline incision was performed, and the cecum was isolated. A 6-0 prolene suture ligature was placed at a level 5.0 mm from the cecal tip away from the ileocecal valve.
The ligated cecal stump was then punctured once with a 22-gauge needle, and 2mm stool extruded. The cecum was then placed back into its normal intra-abdominal position. The abdomen was then closed with a running suture of 6-0 prolene in two layers, peritoneum and fascia separately to prevent leakage of fluid. […]
Cecal Ligation and Puncture (CLP) was performed as described above in Example 1. […] HMGB1 was measured by western blot using anti-HMG1 polyclonal antisera (U.S. Pat. No. 6,303,321) and standard methods. Band densities were measured using a Bio-Rad Imaging densitometer. […]
Cecal ligation and puncture were performed as described above. […] Mice were monitored for survival twice daily for three weeks. […] TNF was measured by ELISA as discussed above. HMGB1 was measured in sera by Western blot as discussed above.

The subject of assay [3] is TNF-α. Nature of the assay: Serum TNF-α (ELISA) in septic mice after cecal ligation and puncture. Type of assay: in vivo, BALB/c mice. The settings on record: for decrease of serum level TNF-α compared to vehicle control: blood 6 h after treatment. How it is done:
as §1
The ligated cecal stump was then punctured once with a 22-gauge needle, and 2mm stool extruded. The cecum was then placed back into its normal intra-abdominal position. The abdomen was then closed with a running suture of 6-0 prolene in two layers, peritoneum and fascia separately to prevent leakage of fluid. All animals were resuscitated with a normal saline solution administered sub-cutaneously at 20 ml/kg of body weight. Each mouse received a subcutaneous injection of imipenem (0.5 mg/mouse) (Primaxin, Merck & Co., Inc., West Point, Pa.) 30 minutes after the surgery. Animals were then allowed to recuperate.
Twenty-four hours after surgery, mice were intraperitoneally administered either 0.01 mg/kg or 0.1 mg/kg Galantamine Hydrobromide (CalBioChem, San Diego, Calif.) or vehicle control (saline). Galantamine was prepared in saline to a final concentration of 10 mg/ml. Mice were euthanized 6 hours after treatment with Galantamine or vehicle control (30 hours after surgery) and blood was collected by cardiac puncture for TNF-α measurement. TNF-α was measured by ELISA (mouse ELISA kit from R&D Systems Inc., Minneapolis, Minn.).
Cecal ligation and puncture were performed as described above. Randomly selected mice were treated intraperitoneally with vehicle (saline, 200 ul) or tacrine (2.5 μg/kg or 0.25 μg/kg) twice daily for 3 days, starting 24 hours after surgery. Mice were monitored for survival twice daily for three weeks. […] TNF was measured by ELISA as discussed above. HMGB1 was measured in sera by Western blot as discussed above.

The next assay deals with TNF. Nature of the assay: Serum TNF (ELISA) in endotoxemic mice. Type of assay: in vivo, BALB/c mice. The protocol: Male BALB/c mice were injected intraperitoneally with 6 mg/kg endotoxin (lipopolysaccharide, E. coli 0111:B4, Sigma, St. Louis, Mo.; 10 mg/ml in pyrogen-free saline), which had been sonicated for 30 min. Galantamine (CalBioChem, San Diego, Calif.) at doses of 0.1, 1, 2 or 4 mg/kg or vehicle control were injected intraperitoneally one hour before endotoxin administration in anesthetized animals. One and half hours after endotoxin exposure, blood was harvested for TNF measurement.
Blood was centrifuged at 5,000 rpm (1,500×g) for 15 min and the supernatants were collected for TNF determination. Serum and supernatants were used for TNF protein analysis by ELISA (R&D Systems Inc., Minneapolis, Minn.) according to the manufacturer's instructions.

In assay [4] the test system is murine CLP model of sepsis. The class given is in vivo, mice.
The mark [5] stands for this setting: 2.5 μg/kg i.p. 24 h after CLP, blood 6 h later.

For `COc1ccc2c3c1O[C@H]1C[C@@H](O)C=C[C@@]31CCN(C)C2` [Galantamine], the “decrease of serum level TNF-α compared to vehicle control” value in the assay with TNF-α [1] was “approximately 94%”; in the assay with TNF-α [3] (0.01 mg/kg i.p. 24 h after CLP), “approximately 50%”; in the assay with TNF-α [3] (0.1 mg/kg i.p. 24 h after CLP), approximately 80%. The mice survived entry was “about 75%” in assay [2] (4 mg/kg i.p. six hours before endotoxin); 58% in assay [4] (Day 6, 10 ug/kg i.p. twice a day for 3 days from 24 h after CLP, vehicle 37%); 90% in assay [4] (Day 6, 100 ug/kg i.p. twice a day for 3 days from 24 h after CLP, vehicle 37%). In addition, the increase in survival entry is given as “about 15%” in assay [2] (day 14, 1 mg/kg i.p. 1 h before endotoxin) and approximately 25% in assay [2] (day 14, 2 mg/kg i.p. 1 h before endotoxin). Moreover, the “increase in survival compared with vehicle control” value in assay [2] (day 14, 4 mg/kg i.p. 1 h before endotoxin) was “about 90%”. For the same compound, the “decrease of serum level of HMGB1 compared to vehicle control” value with HMGB1 (0.1 mg/kg i.p. 24 h after CLP, blood 6 h after treatment) was “about 50%”. Further, the “inhibition of serum TNF in endotoxemic mice” value is “nearly two-fold inhibition” with TNF (2 mg/kg i.p. 1 h before endotoxin) and “nearly three-fold inhibition” with TNF (4 mg/kg i.p. 1 h before endotoxin). In addition, the “effect on serum TNF in endotoxemic mice” value with TNF (1, 2 and 4 mg/kg i.p. 1 h before endotoxin, blood 1.5 h after endotoxin) is reported as “significantly inhibited serum TNF”. Moreover, the “survival from lethal sepsis” value came out at 58% in assay [4] (10 μg/kg i.p. twice daily, 3 days, from 24 h after CLP, monitored 3 weeks, vehicle 37%) and 90% in assay [4] (100 μg/kg i.p. twice daily, 3 days, from 24 h after CLP, monitored 3 weeks, vehicle 37%, p<0.05).
For `CN(C)C(=O)Oc1cccc([N+](C)(C)C)c1` [Neostigmine, Neostigmine methyl sulfate], the mice survived result in assay [2] (0.1 mg/kg i.p. 30 minutes before endotoxin) was “about 50%”.
For the compound `Nc1c2c(nc3ccccc13)CCCC2` [Tacrine], the “effect on serum HMGB1 in septic mice” value in the assay on HMGB1 (setting [5]) is on record as “significantly reduced”. For the same compound, in the assay with TNF-α [3] (setting [5]), the “effect on serum TNF in septic mice” value is recorded as “significantly reduced”. Also, in assay [4] (mouse, in vivo, ip), the “effect on survival in mice with polymicrobial sepsis” value was “significantly improved survival”, the mice survived result is recorded as “all” and the “survival from lethal sepsis” value turned out to be 100%.

The values are drawn from US8003632B2, “Cholinesterase inhibitors for treating inflammation” (priority 2004, dated 2011).
